# Read-outs that look alike come from different tables or passages of the source.
# Experiments:
# hGSTM1-1 [1] = biological target: T1, hGSTM1-1 (Homo sapiens, UniProt P09488); assay: biochemical; design: made in house; host or cells: E. coli
# T1 sequence (P09488 1-218): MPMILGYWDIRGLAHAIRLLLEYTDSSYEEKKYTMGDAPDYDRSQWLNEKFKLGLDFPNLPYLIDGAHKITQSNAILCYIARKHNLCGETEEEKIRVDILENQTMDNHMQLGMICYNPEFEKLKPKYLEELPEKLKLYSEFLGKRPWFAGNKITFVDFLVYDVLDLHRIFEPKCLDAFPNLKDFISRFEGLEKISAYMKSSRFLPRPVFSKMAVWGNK
# Method: Reduced GST assays were performed by monitoring the formation of the conjugate of CDNB (1 mM) with GSH (2.5 mM) at 340 nm (ε = 9.6 mM^−1cm^−1) for 120 s according to a published method. One unit of enzyme activity is defined as the amount of enzyme that produces 1 μmol of product per minute under the assay conditions.
# Pesticide screening and inhibition potency evaluation towards hGSTM1-1 were carried out in the assay system described above in the presence of 25 μM pesticide diluted in acetone. During the assay, no measurable pesticide/GSH reaction was detected. The percentage of enzyme inhibition (I) was calculated using the following equation:%I = [(Ro − Ri)/Ro] × 100(3) where Ro is the unit of enzyme activity increase for the uninhibited reaction and Ri is the rate of increase for the inhibited reaction. Both Ri and Ro correspond to the same substrate concentration.
# hGSTM1-1 [2] = biological target: T1, hGSTM1-1; assay: biochemical; settings: pH 7.4
# Excerpt: Furthermore, the catalytic activity of hGSTM1-1 cannot be regained by extensive dialysis or gel filtration on Sephadex G-25. […] The Kapp calculated by inactivation experiments is in good agreement to that determined by kinetic inhibition analysis.
# The rate of inactivation was followed by periodically removing samples for assays of enzymatic activity.
# [3] = 25 μM pesticide, CDNB (1 mM)-GSH (2.5 mM) assay, mean of three assays, variation less than 5%, read-out: Inhibition (%)
# [4] = 25 μM pesticide, CDNB (1 mM)-GSH (2.5 mM) assay, mean of three assays, variation less than 5%
Compound,inhibition at 25 µM (hGSTM1-1 [1]; [3]),other results
CCNc1nc(Cl)nc(NC(C)(C)C)n1 [Terbuthylazine],12%,
O=C(Nc1ccccc1-c1ccc(Cl)cc1)c1cccnc1Cl [Boscalid],20.4%,
CCOP(=S)(OCC)Oc1nc(Cl)c(Cl)cc1Cl [Chlorpyrifos],0%,
CO/N=C(/C1=NOCCO1)c1ccccc1Oc1ncnc(Oc2ccccc2Cl)c1F [Fluoxastrobin],18.5%,
C=CC1(C)OC(=O)N(c2cc(Cl)cc(Cl)c2)C1=O (centres unmarked) [Vinclozolin],14.3%,
CC(C)(C)C(O)C(Oc1ccc(Cl)cc1)n1cncn1 (centres unmarked) [Triadimenol],0%,
COCC(=O)N(c1c(C)cccc1C)C(C)C(=O)OC (centres unmarked) [Metalaxyl],19.8%,
CC(C)C(C(=O)OC(C#N)c1cccc(Oc2ccccc2)c1)c1ccc(Cl)cc1 (centres unmarked) [Fenvalerate],0%,
COP(=S)(OC)Oc1c(Cl)cc(C)cc1Cl [Tolclofos-methyl],,inhibition at 25 µM (hGSTM1-1 [1]): 9.32%
O=[N+]([O-])NC1=NCCN1Cc1ccc(Cl)nc1 [Imidacloprid],0%,
O=[N+]([O-])c1ccc(Oc2ccc(C(F)(F)F)cc2[N+](=O)[O-])cc1 [Fluorodifen],16.7%,
CNC(=O)Oc1cccc2ccccc12 [Carbaryl],,inhibition at 25 µM (hGSTM1-1 [1]): 0%
CC1(C)C(C=C(Cl)Cl)C1C(=O)OCc1cccc(Oc2ccccc2)c1 (centres unmarked) [Permethrin],11.2%,
N#C/N=C1\SCCN1Cc1ccc(Cl)nc1 [Thiacloprid],,inhibition at 25 µM (hGSTM1-1 [1]): 10.7%
O=C(NC(=O)c1c(F)cccc1F)Nc1ccc(Cl)cc1 [Diflubenzuron],0%,
CC1(C)C(C=C(Cl)Cl)C1C(=O)OC(C#N)c1cccc(Oc2ccccc2)c1 (stereo not drawn) [Alpha cypermethrin],0%,
CCO[PH](=O)O [Fosetyl-Al],,Inhibition (%) (hGSTM1-1 [1]; [4]): 0.66%
CC1(C)[C@H](C(=O)O[C@H](C#N)c2cccc(Oc3ccccc3)c2)[C@@H]1C=C(Br)Br [Deltamethrin],0%,
Imidachlor,,Inhibition (%) (hGSTM1-1 [1]; [4]): 10.14%
"N[C@@H](CCC(=O)N[C@@H](CSCc1ccc([N+](=O)[O-])cc1)C(=O)NCC(=O)O)C(=O)O [S-nitrobenzyl-GSH, S-nitrobenzyl-glutathione]",,Effect on inactivation of hGSTM1-1 by GS-ESF (hGSTM1-1 [2]): diminish the observed rate of enzyme inactivation
"CCOC(=O)CC(SP(=S)(OC)OC)C(=O)OCC (centres unmarked) [Malathion, malathion]",12.7%,
C#CCOc1ccc(CCNC(=O)C(OCC#C)c2ccc(Cl)cc2)cc1OC (centres unmarked) [Mandipropamid],,Inhibition (%) (hGSTM1-1 [1]; [4]): 21.47%
O=C(NC(=O)c1c(F)cccc1F)Nc1cc(Cl)c(F)c(Cl)c1F [Teflubenzuron],11.2%,
CCOC(=O)Nc1cccc(OC(=O)Nc2ccccc2)c1 [Desmedipham],0%,
CO/C=C(/C(=O)OC)c1ccccc1COc1cccc(C(F)(F)F)n1 [Picoxystrobin],,Inhibition (%) (hGSTM1-1 [1]; [4]): 10.56%
CCC(C)(C)C(=O)OC1=C(c2ccc(Cl)cc2Cl)C(=O)OC12CCCCC2 [Spirodiclofen],,Inhibition (%) (hGSTM1-1 [1]; [4]): 10.20%
CN/C(=N\[N+](=O)[O-])NCc1cnc(Cl)s1 [Clothianidin],,inhibition at 25 µM (hGSTM1-1 [1]): 0%
CCc1cccc(C)c1N(C(=O)CCl)C(C)COC (centres unmarked) [Metolachlor],9.2%,
CNC(=O)Oc1cccc2c1OC(C)(C)C2 [Carbofuran],0%,
